Reference: PubChem BioAssay (NCI)
Several values for one entry are separate records, joined by “and”; a condition that tells them apart may be missing. Equal values may be shown once.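 48-hour exposure; five concentrations; linearly interpolated endpoints. At the GI50, growth is halved. TGI denotes the concentration required for complete inhibition of growth.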

Assays:
Assay in all cases: NCI-60 cell line screen, 48 h
[1] = system: NCI-H460 lung
[2] = system: IGROV1 ovarian
[3] = system: MOLT-4 leukemia
[4] = system: HOP-92 NSCLC
[5] = system: SR leukemia
[6] = system: EKVX NSCLC
[7] = system: ACHN renal
[8] = system: SNB-75 CNS
[9] = system: MDA-MB-435
[10] = system: KM12 colon

Row | SMILES | GI50 [1] | TGI [1] | GI50 [2] | TGI [2] | GI50 [3] | TGI [3] | GI50 [4] | TGI [4] | GI50 [5] | TGI [5] | GI50 [6] | TGI [6] | GI50 [7] | TGI [7] | GI50 [8] | TGI [8] | GI50 [9] | TGI [9] | GI50 [10] | TGI [10]
1 | Nc1ncn([C@H]2C[C@H](OP(=O)(O)OC[C@H]3O[C@@H](n4cnc5c(=O)[nH]c(N)nc54)C[C@@H]3O)[C@@H](CO)O2)c(=O)n1 | 7.44 µM | > 100 µM | > 100 µM | > 100 µM | > 100 µM | > 100 µM | > 100000 nM | > 100 µM | > 100000 nM | > 100 µM | > 100 µM | > 100 µM | 38.4 µM | > 100 µM | > 100000 nM | > 100 µM | > 100000 nM | > 100 µM |  | 
2 | O=C1c2c(Cl)c(Cl)c(Cl)c(Cl)c2C(=O)C2(Cl)CC=CCC12Cl (stereo not given) | 3.09 µM | 11 µM | 1.81 µM | 3.86 µM | 2.39 µM | 6.36 µM | 2030 nM | 3.87 µM | 1150 nM | 4.38 µM | 2.64 µM | 7.81 µM | 1.89 µM | 3.37 µM | 1840 nM | 3.34 µM | 2060 nM | 4.32 µM | 1840 nM | 3.56 µM
3 | COc1cc(CCNC(=O)OC(C)(C)C)c2c(c1OC)SSSSS2 | 2.04 µM | 4.81 µM | 2.2 µM | 4.63 µM | 5.46 µM | > 100 µM | 2310 nM | 4.79 µM | 4480 nM | 32.8 µM | 2.69 µM | 5.97 µM | 2.56 µM | 4.93 µM | 2270 nM | 4.56 µM | 2280 nM | 4.78 µM | 3670 nM | 12.2 µM
4 | O=c1oc2ccc(Br)cc2c(=O)n1-c1ccc(Cl)cc1F | 0.739 µM | 10.7 µM | 0.61 µM | 17.2 µM | 1.7 µM | 5.22 µM | 179 nM | 0.618 µM | 798 nM | > 100 µM | 1.45 µM | 7.81 µM | 1.22 µM | 12.9 µM | 572 nM | 2.8 µM | 1350 nM | 6.23 µM | 2030 nM | 4.87 µM
5 | NC(=O)c1cc(Br)ccc1NC(=O)/C=C/c1ccccc1 | 1.42 µM | > 100 µM | 2.35 µM | > 100 µM | 4.02 µM | > 53.9 µM | 5340 nM | 25.8 µM | 823 nM | > 100 µM | 3.27 µM | > 100 µM | 6.45 µM | > 100 µM | 2160 nM | 10.7 µM | 421 nM | 3.09 µM | 1090 nM | > 100 µM
6 | CN1CCN(CCCN2c3ccccc3Sc3ccc(Cl)cc32)CC1 |  | 11.4 µM and 80.5 µM |  | 11.7 µM and 67.3 µM | 3.8 µM | 11.5 µM | 894 nM | 5.25 µM | 2990 nM | 11.3 µM | 5.46 µM | 12.4 µM | 5.93 µM | 12.4 µM |  |  |  | 6.02 µM and 58.6 µM |  | 12.4 µM and 95.2 µM
7 | O=C1CC(CC(OCc2ccccc2)C(OCc2ccccc2)C(COCc2ccccc2)OCc2ccccc2)CC(=O)N1 (stereo not given) |  | > 100 µM and 97.7 µM | > 100 µM and 17.2 µM | > 100 µM and 33.7 µM |  | > 100 µM and 35.3 µM |  | > 100 µM |  | > 100 µM and 65.4 µM | > 100 µM and 12.5 µM | > 100 µM | > 100 µM and 18.2 µM | > 100 µM |  | > 100 µM and 75.2 µM |  | > 100 µM and 21.7 µM |  | > 100 µM and 21.3 µM
8 | C/C=C(\C)C(=O)O[C@H]1C=CC(=O)O[C@H]1COC(=O)[C@H](C)O | 10.3 µM | 29.1 µM | 10.2 µM | 33.7 µM | 1.95 µM | 5.22 µM | 7600 nM | 21.1 µM | 2200 nM | 13.4 µM | 14.5 µM | 28.9 µM | 4.38 µM | 16.6 µM | 6950 nM | 20.9 µM | 5740 nM | 22.4 µM | 8810 nM | 27 µM
9 | COc1cc(CCC(=O)NC[C@@H](O)c2ccccc2)ccc1O | > 100 µM | > 100 µM | > 100 µM | > 100 µM | > 100 µM | > 100 µM | > 100000 nM | > 100 µM | 61600 nM | > 100 µM | > 100 µM | > 100 µM | > 100 µM | > 100 µM | > 100000 nM | > 100 µM | > 100000 nM | > 100 µM | > 100000 nM | > 100 µM
10 | CCOC(=O)c1cc(NS(=O)(=O)c2ccc(C)cc2)cc(C(=O)OCC)c1 | 37.5 µM | > 100 µM | 51.7 µM | > 100 µM | 26.6 µM | > 100 µM | 32000 nM | > 100 µM | 34400 nM | > 100 µM | 31.7 µM | > 100 µM | 42.3 µM | > 100 µM | 23100 nM | 68.9 µM | 33600 nM | > 100 µM | 55900 nM | > 100 µM
11 | CC1(C)CCC(C)(C)c2cc(NC(=O)c3ccc(C(=O)O)cc3)ccc21 |  | > 62.7 µM |  | > 75.6 µM |  | > 100 µM |  | 64.1 µM |  | > 100 µM |  | > 100 µM |  | > 100 µM |  | > 100 µM |  | > 77.8 µM |  | 59.5 µM
12 | Cc1cccc(Cl)c1NC(=O)c1cnc(Nc2cc(N3CCOCC3)cc(S(C)(=O)=O)c2)s1 | > 9.52 µM | > 10 µM | 0.0541 µM | 0.521 µM | 5.71 µM | > 10 µM | 29.4 nM | 0.303 µM | > 10000 nM | > 10 µM | 1.24 µM | > 10 µM | 0.364 µM | > 7.11 µM | 20.2 nM | 0.196 µM | > 9630 nM | > 10 µM | > 10000 nM | > 10 µM
13 | O=S(=O)(NCCCNc1cc(-c2cn(-c3ccccc3)nc2-c2cccc(O)c2)ccn1)c1ccc(Br)cc1 | 1.77 µM | 3.72 µM | 3.58 µM | 29 µM | 1.13 µM | 3.73 µM | 1830 nM | 7.55 µM | 1510 nM | 5.49 µM | 2.29 µM | 66.4 µM | 2.97 µM | 15.4 µM | 1220 nM | 7.81 µM | 1700 nM | 3.53 µM | 1650 nM | 3.94 µM
